Measured values taken from ChEMBL document CHEMBL1130001, “Quantitative structure-activity relationships among macrolide antibacterial agents: in vitro and in vivo potency against Pasteurella multocida” (J Med Chem, 1997).
In brackets after ≈: the same amount, converted by molar mass.

Key:
[1] = physchem
Description: Dissociation constant (pKa)

[2] = physchem; remark: listed apart in the source
Description: Dissociation constant (pKa)

[3] = not given; remark: listed apart in the source
[4] = species on record: Mus musculus; experiment: Protective dose at which 50% of infected, treated mice survive; type: functional; conditions: read-out: PD50
[5] = not given; remark: listed apart in the source
[6] = tested on: Pasteurella multocida; experiment: Minimum inhibitory concentration against Pasteurella multocida.; type: functional
[7] = physchem; remark: listed apart in the source
Description: Dissociation constant (pKa)

[8] = tested on: Pasteurella multocida; type: functional
Description: Log value of the Minimum inhibitory concentration against Pasteurella multocida.

[9] = tested on: Pasteurella multocida; experiment: Minimum inhibitory concentration against Pasteurella multocida; type: functional

| SMILES | pNF | pKa [1] | pKa [2] | pCF [3] | ED50 [4] [mg/kg] | Log K [5] | MIC [6] [µg/mL] | pKa [7] | Log 1/MIC [8] | MIC [9] [µg/mL] |
| --- | --- | --- | --- | --- | --- | --- | --- | --- | --- | --- |
| CC[C@H]1OC(=O)C[C@@H](O)[C@H](C)[C@@H](O[C@@H]2O[C@H](C)[C@@H](O)[C@H](N(C)C)[C@H]2O)[C@@H](CCN2C[C@H](C)C[C@H](C)C2)C[C@@H](C)C(=O)/C=C/C(C)=C/[C@@H]1CO[C@@H]1O[C@H](C)[C@@H](O)[C@@H](OC)[C@H]1OC [TILMICOSIN] | 3.007 | 8.18 | 9.56 | 0.847 | 100 | 0.26 | 1.56 (≈ 1.79 µM) |  |  |  |
| CCC1OC(=O)CC(O)C(C)C(O[C@@H]2O[C@H](C)C[C@H](N(C)C)[C@H]2O)C(CC=O)CC(C)C(=O)/C=C/C(C)=C/C1C (stereo partly specified) | 1.446 | 8.83 |  | 0.016 |  | 0.86 |  |  |  |  |
| CC[C@H]1OC(=O)[C@H](C)[C@@H](O[C@H]2C[C@@](C)(OC)[C@@H](O)[C@H](C)O2)[C@H](C)[C@@H](O[C@@H]2O[C@H](C)C[C@H](N(C)C)[C@H]2O)[C@](C)(O)C[C@@H](C)C(=O)[C@H](C)[C@@H](O)[C@]1(C)O [ERYTHROMYCIN] | 1.494 | 8.88 |  | 0.014 | > 150 | 0.35 | 0.78 (≈ 1.06 µM) |  |  |  |
| CC[C@H]1OC(=O)CC(O)[C@H](C)[C@@H](O[C@@H]2O[C@H](C)C[C@H](N(C)C)[C@H]2O)[C@@H](CCN(C)CCCN(C)C(=O)[C@H](C)N)C[C@@H](C)C(=O)/C=C/C(C)=C/[C@@H]1C (stereo partly specified) | 3.067 | 7.03 | 8.53 | 1.307 |  | -0.16 |  | 9.16 | 3.27 |  |
| CO[C@@H]1[C@@H](O[C@@H]2O[C@H](C)[C@@H](O[C@H]3C[C@@](C)(O)[C@@H](OC(=O)CC(C)C)[C@@H](C)O3)[C@@H](N(C)C)[C@H]2O)[C@@H](CC=O)C[C@@H](C)C(=O)/C=C/C=C/C[C@@H](C)OC(=O)C[C@H]1OC(C)=O |  |  |  |  | > 150 |  | 6.25 (≈ 7.57 µM) |  |  |  |
| CC[C@H]1OC(=O)CC(O)[C@H](C)[C@@H](O[C@@H]2O[C@H](C)C[C@H](N(C)C)[C@H]2O)[C@@H](CCNCCCN(C)C)C[C@@H](C)C(=O)/C=C/C(C)=C/[C@@H]1C (stereo partly specified) | 4.887 | 7.97 | 8.88 | 2.157 |  | 0.19 |  | 10.1 | 3.22 |  |
| CC[C@H]1OC(=O)CC(O)[C@H](C)[C@@H](O[C@@H]2O[C@H](C)C[C@H](N(C)C)[C@H]2O)[C@@H](CCN(C)CCN(C)C)C[C@@H](C)C(=O)/C=C/C(C)=C/[C@@H]1C (stereo partly specified) | 2.413 | 5.61 | 8.19 | 0.863 |  | -0.23 |  | 8.95 | 2.44 |  |
| CC[C@H]1OC(=O)CC(O)[C@H](C)[C@@H](O[C@@H]2O[C@H](C)C[C@H](N(C)C)[C@H]2O)[C@@H](CCNCC(C)(C)CO)C[C@@H](C)C(=O)/C=C/C(C)=C/[C@@H]1C (stereo partly specified) | 3.481 | 8.53 | 9.72 | 1.161 |  | 0.43 |  |  | 4.12 |  |
| CC[C@H]1OC(=O)CC(O)[C@H](C)[C@@H](O[C@@H]2O[C@H](C)C[C@H](N(C)C)[C@H]2O)[C@@H](CCN(CCCN(C)C)C(=O)[C@H](C)N)C[C@@H](C)C(=O)/C=C/C(C)=C/[C@@H]1C (stereo partly specified) | 4.138 | 7.81 | 8.78 | 1.938 |  | -0.12 |  | 9.6 | 3.27 |  |
| CC[C@H]1OC(=O)CC(O)[C@H](C)[C@@H](O[C@@H]2O[C@H](C)C[C@H](N(C)C)[C@H]2O)[C@@H](CCN(C)CCN(C)C(=O)[C@H](C)N)C[C@@H](C)C(=O)/C=C/C(C)=C/[C@@H]1C (stereo partly specified) | 2.391 | 6.81 | 8.13 | 0.891 |  | 0.02 |  | 8.9 | 4.15 |  |
| CC[C@H]1OC(=O)C[C@@H](O)[C@H](C)[C@@H](O[C@@H]2O[C@H](C)[C@@H](O[C@H]3C[C@@](C)(O)[C@@H](O)[C@H](C)O3)[C@H](N(C)C)[C@H]2O)[C@@H](CC=O)C[C@@H](C)C(=O)/C=C/C(C)=C/[C@@H]1CO[C@@H]1O[C@H](C)[C@@H](O)[C@@H](OC)[C@H]1OC [TYLOSIN] | 0.497 | 7.73 |  | 0.167 | 86 | 0.68 | 25 (≈ 27.3 µM) |  |  |  |
| CC[C@H]1OC(=O)CC(O)[C@H](C)[C@@H](O[C@@H]2O[C@H](C)C[C@H](N(C)C)[C@H]2O)[C@@H](CCNCCO)C[C@@H](C)C(=O)/C=C/C(C)=C/[C@@H]1C (stereo partly specified) | 3.437 | 8.59 | 9.62 | 1.217 |  | 0.1 |  |  | 3.79 |  |
| CO[C@@H]1[C@@H](O[C@@H]2O[C@H](C)[C@@H](O[C@H]3C[C@@](C)(O)[C@@H](OC(=O)CC(C)C)[C@H](C)O3)[C@H](N(C)C)[C@H]2O)[C@@H](CC=O)C[C@@H](C)C(=O)/C=C/[C@@H]2O[C@H]2C[C@@H](C)OC(=O)C[C@H]1OC(C)=O [CARBOMYCIN A] | 0.419 | 7.61 |  | 0.209 | > 150 | 1.48 | 1.56 (≈ 1.85 µM) |  |  |  |
| CC[C@H]1OC(=O)C[C@@H](O)[C@H](C)[C@@H](O[C@@H]2O[C@H](C)[C@@H](O)[C@@H](N(C)C)[C@H]2O)[C@@H](CC=O)C[C@@H](C)C(=O)/C=C/C(C)=C/[C@@H]1CO[C@@H]1O[C@H](C)[C@@H](O)[C@@H](OC)[C@H]1OC | 1.005 | 8.36 |  | 0.045 |  | 0.17 |  |  | 2.39 |  |
| CC[C@H]1OC(=O)C[C@@H](O)[C@H](C)[C@@H](O[C@@H]2O[C@H](C)C[C@H](N(C)C)[C@H]2O)[C@@H](CC=O)C[C@@H](C)C(=O)/C=C/[C@]2(C)O[C@H]2[C@@H]1C [ROSARAMICIN] | 1.407 | 8.79 |  | 0.017 | 68 | 0.63 | 0.2 (≈ 0.344 µM) |  |  |  |
| CC[C@H]1OC(=O)CC(O)[C@H](C)[C@@H](O[C@@H]2O[C@H](C)C[C@H](N(C)C)[C@H]2O)[C@@H](CCNC2C(O)CCCC2O)C[C@@H](C)C(=O)/C=C/C(C)=C/[C@@H]1C (stereo partly specified) | 3.099 | 8.56 | 9.31 | 1.189 |  | 0.23 |  |  | 3.53 |  |
| CC[C@H]1OC(=O)[C@H](C)[C@@H](O[C@H]2C[C@@](C)(OC)[C@@H](O)[C@H](C)O2)[C@H](C)[C@@H](O[C@@H]2O[C@H](C)C[C@H](N(C)C)[C@H]2O)[C@](C)(OC)C[C@@H](C)C(=O)[C@H](C)[C@@H](O)[C@]1(C)O [CLARITHROMYCIN] | 1.601 |  |  | 0.011 | 100 | 0.63 | 0.39 (≈ 0.521 µM) |  |  |  |
| CC[C@H]1OC(=O)[C@H](C)[C@@H](O[C@H]2C[C@@](C)(OC)[C@@H](O)[C@H](C)O2)[C@H](C)[C@@H](O[C@@H]2O[C@H](C)C[C@H](N(C)C)[C@H]2O)[C@](C)(O)C[C@@H](C)CN(C)[C@H](C)[C@@H](O)[C@]1(C)O [AZITHROMYCIN] | 3.41 |  |  | 1.36 | 16 | 0.38 |  |  |  | 0.05 (≈ 0.0668 µM) |
| CO[C@H]1C[C@H](O[C@H]2[C@H](C)[C@@H](O[C@@H]3O[C@H](C)C[C@H](N(C)C)[C@H]3O)[C@@H](C)CC3(CO3)C(=O)[C@H](C)[C@@H](O)[C@@H](C)[C@@H](C)OC(=O)[C@@H]2C)O[C@@H](C)[C@@H]1O (single isomer, unassigned) [OLEANDOMYCIN] | 1.455 | 8.84 |  | 0.015 | > 150 | 0.01 | 6.25 (≈ 9.09 µM) |  |  |  |
